Results on five compounds are retold here after ChEMBL document CHEMBL1127127, “Avermectin B1-8,9-oxide: reactivity, bioactivity, and stereochemistry” (1993).

This test deals with Artemia. Kind of test: Tested for bioactivity against Brine Shrimp. It is filed as functional.
Compound `CC[C@H](C)[C@H]1O[C@]2(C=C[C@@H]1C)C[C@@H]1C[C@@H](C/C=C(\C)[C@@H](O[C@@H]3C[C@@H](OC)[C@H](O[C@@H]4C[C@@H](OC)[C@H](O)[C@@H](C)O4)[C@@H](C)O3)[C@@H](C)/C=C/C=C3\COC4[C@H](O)C(C)=C[C@@H](C(=O)O1)[C@]34O)O2` (stereo not given in full) showed an IC100 of 335 ng/mL. The compound `CC[C@H](C)[C@H]1O[C@]2(CC[C@@H]1C)C[C@@H]1C[C@@H](C/C=C(\C)[C@@H](O[C@@H]3C[C@@H](OC)[C@H](O[C@@H]4C[C@@H](OC)[C@H](O)[C@@H](C)O4)[C@@H](C)O3)[C@@H](C)/C=C/C=C3\COC4[C@H](O)C(C)=C[C@@H](C(=O)O1)[C@]34O)O2` (stereo not given in full) registered an IC100 of 430 ng/mL. In turn, `CC[C@H](C)[C@H]1O[C@]2(C=C[C@@H]1C)C[C@@H]1C[C@@H](C/C=C(\C)[C@@H](O[C@@H]3C[C@@H](OC)[C@H](O[C@@H]4C[C@@H](OC)[C@H](O)[C@@H](C)O4)[C@@H](C)O3)[C@@H](C)/C=C/C(Sc3ccccc3)[C@]3(O)COC4[C@H](O)C(C)=C[C@@H](C(=O)O1)[C@@]43O)O2` (stereo not given in full) registered an IC100 of over 55000 ng/mL.

In turn, `CC[C@H](C)[C@H]1O[C@]2(C=C[C@@H]1C)C[C@@H]1C[C@@H](C/C=C(\C)[C@@H](O[C@@H]3C[C@@H](OC)[C@H](O[C@@H]4C[C@@H](OC)[C@H](O)[C@@H](C)O4)[C@@H](C)O3)[C@@H](C)/C=C/C(O)[C@]3(O)COC4[C@H](O)C(C)=C[C@@H](C(=O)O1)[C@@]43O)O2` (stereo not given in full) yielded an IC100 of over 55000 ng/mL.

Consider `CC[C@H](C)[C@H]1O[C@]2(C=C[C@@H]1C)C[C@@H]1C[C@@H](C/C=C(\C)[C@@H](O[C@@H]3C[C@@H](OC)[C@H](O[C@@H]4C[C@@H](OC)[C@H](O)[C@@H](C)O4)[C@@H](C)O3)[C@@H](C)/C=C/[C@@H]3O[C@]34COC3[C@H](O)C(C)=C[C@@H](C(=O)O1)[C@@]34O)O2` (stereo not given in full), for which the IC100 was determined as 650 ng/mL.
